Results from patent US20060121449A1, “Method for selection of compounds which inhibit clonal cell growth and use thereof” (priority 2002, published 2006).

Key:
BHK21/c13 cells = test: Surface growth (degree of confluence) of BHK21/c13 cells on plastic (Exp 5); format: cell-based, hamster; conditions: for Concentration giving about full inhibition of growth on surface: 2-4 days
Excerpt: The degree of confluence of polyoma virus transformed BHK21/c13 cells, the S100T1 cell strain, growing on plastic surface was observed 2-4 days after seeding 3000 or […] cells in appropriate wells of a 96 well tissue culture plate (Nunc).

[1] = system: spleen antibody producing cells against sheep red cells; test: Jerne's test: haemolytic plaques of spleen cells after immunisation with sheep red cells (Exp 10); format: in vivo, mouse; conditions: for Change of number of plaques (antibody producing cells), average and high doses: 8.4 μl 20 mM and 3.5 μl 200 mM s.c.; for Condition of the animals on injection days (day 0 to day 62): all animals, s.c. 2 μl 20 mM to 3.5 μl 200 mM, day = column head; for Plaque no. in 10 mill. cells: control 4689
Description: The same principle could be tested in animals using the classical Jerne's test. Shortly described: Mice were immunised with sheep red cells. At the same time subcutaneous injection with a clone inhibitor, e.g. 4-OH-OPB, was performed. After 5 days the spleen was squeezed and spleen-cells counted and mixed with agar medium, sheep red cells and complement. After a short time plaques appeared and were counted and percent of total number of spleen cells was calculated. […] Therefore, it is probable that it is only the reaction against the new immunogen that is affected. […] Only cells of the same specificity seemed to be the <> of clonal inhibition even if lots of other B-lymphocytes are present, but with other specificities. The only condition necessary seemed to be that affected cells should be located more than a certain distance from each other.
In order to examine the degree of diminishing cloning in the immune system, Jerne's test in mice may be suitable (Experiment 10). Sheep erythrocytes are injected into mice. A few days later cells from the spleen of the animals are studied. In experiment 10 the smallest dose was about 3.8 μM if 4-OH-OPB was solved in the extracellular fluid of the mouse. […] But there are indications that normal cells might tolerate higher doses than malignant cells. Therefore, it is thought that effective tumour inhibiting doses of 4-OH-OPB probably will affect the clonability of antibody producing cells in the spleen under or shortly after primary immunisation moderately, about 2 logs.
The test animals were 4 mice, white Bom/NMRI (Table 5). The drug that was tested in this experiment is 4-OH-OPB (Table 1-4). It is inhibiting Ehrlich ascites when injected together with the cells in peritoneum in a concentration of 4 μM or higher and clonal growth of BHK21/c13 and its polyoma virus transformed offspring, S100T1, in cell culture.
A section was performed; they were weighed and a search for tumour masses was undertaken without finding any. The spleens were removed and about half of it crushed in 0.5 ml Eagles for getting extracted, free spleen cells that were seeded in soft agar on top of a solid agar layer in a Petri dish of 8.5 cm in diameter. The agar layer with spleen cells also contained sheep red cells and complement was added to obtain hemolysis.
Animals were killed by cervical dislocation on day 62 and spleens were immediately put on cold Eagle's medium for transportation. It lasted about 5 hours before the agar dishes were ready for incubation in 5% CO2 and 37° C. However, the dishes from mouse #1 and #2 were too fluid in the top layers and developed two many plaques to be counted. Therefore, the next day, the second half of the two spleens from mouse #1 and #2 that were kept cold in the same medium were crushed in the same way and new dishes were prepared with less number of cells.

HSV1 [2] = test: HSV1 replication and cytopathogenicity in RK13 cells (Exp 11a, 11b); format: cell-based, Herpes virus type 1; conditions: for Coverage of the bottom read after 2 days / Cytopathogenicity read after 2 days: 11b, HSV 2 μl/well; for Coverage of the bottom read after 2 days: 1 g = 100% coverage of the bottom; for Cytopathogenicity read after 2 days: 1d is 100% degeneration
Description: RK13 cells and HSV1 v:11252 was obtained from Dr. G. Hoddevik, National Institute of Public Health, Oslo, Virus had been stored at −75° C.
The inoculated virus was not removed before the titration in the last experiment. This time, however, removal of inoculate was performed next day.
HSV-1 was added undiluted, but 4-OH-OPB was diluted in 50 μl medium. The row seeded with 2000 nl of HSV was titrated and read after 4 days:
This time the inhibition is 10 times better than before. The difference from 1st time was that the day after infecting cell cultures the medium was changed in order to get rid of remaining active HSV. In addition the original HSV 1 infected and treated cultures were incubated one day more, for 48 hours. The production of virus is then measured in titration of 4-fold dilution steps.

HSV1 [3] = test: as above; format: cell-based, Herpes virus type 1; conditions: for Cytopathogenicity read after 24 hours: 4d = 100% degenerated; for Cell layer read after 24 hours: 4 g = unaffected and covering bottom of the well; for Coverage of the bottom read after 2 days / Cytopathogenicity read after 2 days: 11b, HSV 2 μl/well; for Coverage of the bottom read after 2 days: 1 g = 100% coverage of the bottom; for Cytopathogenicity read after 2 days: 1d is 100% degeneration
[4] = Exp 10 animal 2, low: 2 μl 20 mM s.c.
[5] = Exp 10 animal 3, average: 8.4 μl 20 mM s.c.
[6] = Exp 10 animal 4, high: 3.5 μl 200 mM s.c.
[7] = 11a, inoculate 1 μl/well, 30 μM
[8] = 11a, inoculate 4 μl/well, 30 μM
[9] = 11a, inoculate 16 μl/well, 30 μM

CCCCC1(O)C(=O)N(c2ccccc2)N(c2ccc(O)cc2)C1=O (stereo not shown) [4-OH-OPB, 4-butyl-4-hydroxy-2(p-hydroxyphenyl)-1-phenyl-3,5-pyrazolidinedione]
Concentration needed for total inhibition of surface growth, BHK21/c13 compared to S100T1 (BHK21/c13 cells): about 3 times | Growth on surface with 100 and 300 nM after 4 days (BHK21/c13 cells; 3000 BHK21/c13 cells/well): growth inhibition compared to the control | Concentration giving about full inhibition of growth on surface (BHK21/c13 cells; 3000 BHK21/c13 cells/well): 3 µM | Concentration giving about full inhibition of growth on surface (BHK21/c13 cells; 10000 BHK21/c13 cells/well with 0.1 i.u./ml insulin): 10 µM | Change of number of plaques, smallest dose ([1]; Exp 10, 2 μl 20 mM s.c.): did not significantly change the number of plaques | Change of number of plaques (antibody producing cells), average and high doses ([1]; Exp 10): did reduce the number significantly | Change of number of plaques (antibody producing cells), average and high doses ([1]; Exp 10, listed as 4-OH—OPB): OPB significantly reduced the number of anti- | Condition of the animals on injection days (day 0 to day 62) ([1]; Exp 10): all animals were clinically well | Condition of the animals on injection days (day 0 to day 62) ([1]; Exp 10, listed as 4-OH—OPB): all well at end | 1. number of plaques [1, 4]: many | 2. number of plaques ([1]; Exp 10 animal 2, low: 2 μl 20 mM s.c., 32.6 million cells on dish): 10218 | Plaque no. in 10 mill. cells [1, 4]: 3134 | 1. number of plaques [1, 5]: 42 | Spleen weight ([1]; Exp 10 animal 3, average: 8.4 μl 20 mM s.c. (est. max extracellular 19.6 μM)): 150 mg | Plaque no. in 10 mill. cells [1, 5]: 8.4 | 1. number of plaques [1, 6]: 0-2? | Spleen weight ([1]; Exp 10 animal 4, high: 3.5 μl 200 mM s.c. (est. max extracellular 67.7 μM)): 136 mg | Plaque no. in 10 mill. cells [1, 6]: <=0.23 | Mouse weight after 2 months ([1]; Exp 10 mouse 2 (11.3 μg 4-OH-OPB/30 g)): 37.6 gram | Mouse weight after 2 months ([1]; Exp 10 mouse 3 (51.5 μg 4-OH-OPB/30 g)): 33.3 gram | Mouse weight after 2 months ([1]; Exp 10 mouse 4 (210.2 μg 4-OH-OPB/30 g)): 34 gram | Coverage of the bottom read after 2 days (HSV1 [2]; 0.1 μM): 1 g | Cytopathogenicity read after 2 days (HSV1 [2]; 0.1 μM): 0.28 days | Cytopathogenicity read after 2 days (HSV1 [2]; 0.3 μM): 0.28 days | Coverage of the bottom read after 2 days (HSV1 [2]; 10 μM): 0.4 g | Cytopathogenicity read after 2 days (HSV1 [2]; 30 μM): 0 days | Concentration found to inhibit satisfactorily (HSV1 [2]; Exp 11b, new medium after 24 hours, titrated after 48 hours): 1 µM | HSV titration of treated wells, read after 4 days (HSV1 [3]; 11a, 1 μl HSV, 0.3 μM, dilution 1/1024): ((+)? | Cytopathogenicity read after 24 hours (HSV1 [3]; 11a, inoculate 1 μl/well, 0.1 μM): 1.7 days | Cytopathogenicity read after 24 hours (HSV1 [3]; 11a, inoculate 1 μl/well, 0.3 μM): 1.7 days | Cytopathogenicity read after 24 hours (HSV1 [3]; 11a, inoculate 1 μl/well, 1 μM): 1.7 days | Cytopathogenicity read after 24 hours (HSV1 [3]; 11a, inoculate 1 μl/well, 3 μM): 1.7 days | Cytopathogenicity read after 24 hours (HSV1 [3]; 11a, inoculate 1 μl/well, 10 μM): 4 days | Cell layer read after 24 hours (HSV1 [3]; [7]): 3 to 4 g | Cytopathogenicity read after 24 hours (HSV1 [3]; [7]): 0 days | Cytopathogenicity read after 24 hours (HSV1 [3]; 11a, inoculate 4 μl/well, 0.1 μM): 2.6 days | Cytopathogenicity read after 24 hours (HSV1 [3]; 11a, inoculate 4 μl/well, 0.3 μM): 2.6 days | Cytopathogenicity read after 24 hours (HSV1 [3]; 11a, inoculate 4 μl/well, 1 μM): 2.6 days | Cytopathogenicity read after 24 hours (HSV1 [3]; 11a, inoculate 4 μl/well, 3 μM): 2.6 days | Cytopathogenicity read after 24 hours (HSV1 [3]; 11a, inoculate 4 μl/well, 10 μM): 4 days | Cell layer read after 24 hours (HSV1 [3]; [8]): 3 to 4 g | Cytopathogenicity read after 24 hours (HSV1 [3]; [8]): 0 days | Cytopathogenicity read after 24 hours (HSV1 [3]; 11a, inoculate 16 μl/well, 0.1 μM): 3.4 days | Cytopathogenicity read after 24 hours (HSV1 [3]; 11a, inoculate 16 μl/well, 0.3 μM): 3 to 4 days | Cytopathogenicity read after 24 hours (HSV1 [3]; 11a, inoculate 16 μl/well, 1 μM): 3.4 days | Cytopathogenicity read after 24 hours (HSV1 [3]; 11a, inoculate 16 μl/well, 3 μM): 4 days | Cytopathogenicity read after 24 hours (HSV1 [3]; 11a, inoculate 16 μl/well, 10 μM): 4 days | Cell layer read after 24 hours (HSV1 [3]; [9]): 3 to 4 g | Cytopathogenicity read after 24 hours (HSV1 [3]; [9]): 0.5 days | Coverage of the bottom read after 2 days (HSV1 [3]; 0.3 μM): 1 g | Coverage of the bottom read after 2 days (HSV1 [3]; 1 μM): 1 g | Cytopathogenicity read after 2 days (HSV1 [3]; 1 μM): 0.28 days | Coverage of the bottom read after 2 days (HSV1 [3]; 3 μM): 1 g | Cytopathogenicity read after 2 days (HSV1 [3]; 3 μM): 0.28 days | Cytopathogenicity read after 2 days (HSV1 [3]; 10 μM): 1 days | Coverage of the bottom read after 2 days (HSV1 [3]; 30 μM): 1 g | Concentration that inhibited HSV / necessary for the cure of the infection in cell culture (HSV1 [3]; Exp 11a, inoculate not removed before titration): 10 µM | Concentration that inhibited satisfactorily (HSV1 [3]; Exp 11b): 1000 nM | Total titre reduction (HSV1 [3]; Exp 11b): about 3.5 log | Dose giving maximal inhibition of HSV1 titre (HSV1 [3]; Exp 11b, titration read after four days): ≥ 1 µM | Inhibition in Exp 11b compared with Exp 11a (HSV1 [3]; medium changed the day after infection): 10 times
